These results are taken from patent US6916831B2, “Flavone acetic acid analogs and methods of use thereof” (The University of North Carolina at Chapel Hill, priority 2003, dated 2005).

Converted amounts (≈) assume the structure as drawn. Read-outs that look alike come from different tables or passages of the source. Where only a bound is given, the exact number is not on record here.

One series relates to human lung cancer (A549). The series can be described thus: Cytotoxicity, SRB assay, A549 cells. Format: cell-based. Particulars: 50% reduction in adsorbance at 562 nm relative to untreated cells. As for the experimental part:
(§1) Compounds 2-4 and 9-12 were evaluated in a tubulin polymerization assay and for cytotoxicity. Tubulin polymerization assays were performed as described in Y. Xia et al., J. Med. Chem. 1998, 41, 1155. Cytotoxic assays were performed as described in L. Rubinstein et al., J. Natl. Cancer Inst. 1990, 82, 1113-8.
On the technique in general: The SRB assay estimates cell density from bound dye.

Series [1] deals with human epidermoid carcinoma of the nasopharynx (KB). The series can be described thus: Cytotoxicity, SRB assay, KB cells. Type of series: cell-based. Particulars: for ED50 KB: SRB assay, 50% reduction in adsorbance at 562 nm relative to untreated cells; for number in parentheses after the ED50 bound, KB: not defined in the patent, stands after the highest concentration (>20 or >10 μg/mL). Here is the method: as §1

Series [2] has as its system human ovarian cancer (1A9). The series can be described thus: Cytotoxicity, SRB assay, 1A9 cells. Particulars: 50% reduction in adsorbance at 562 nm relative to untreated cells. Format: cell-based. As for the experimental part:
(§2) Cytotoxic assays were performed as described in L. Rubinstein et al., J. Natl. Cancer Inst.

The subject of series [3] is human breast cancer (MCF-7). The series can be described thus: Cytotoxicity, SRB assay, MCF-7 cells. Type of series: cell-based. The settings on record: 50% reduction in adsorbance at 562 nm relative to untreated cells. Here is the method: as §1
The test system of series [4] is human melanoma cancer (SKMEL-2). The series can be described thus: Cytotoxicity, SRB assay, SKMEL-2 cells. Format: cell-based. The settings on record: 50% reduction in adsorbance at 562 nm relative to untreated cells. Here is the method: as §1
Series [5] concerns glioblastoma carcinoma (U-87-MG). The series can be described thus: Cytotoxicity, SRB assay, U-87-MG cells. The settings on record: 50% reduction in adsorbance at 562 nm relative to untreated cells. Format: cell-based, human. Here is the method: as §1
A further series concerns bone carcinoma (HOS). The series can be described thus: Cytotoxicity, SRB assay, HOS cells. Type of series: cell-based, human. Particulars: 50% reduction in adsorbance at 562 nm relative to untreated cells. Here is the method:
as §1

A further series concerns tubulin polymerization. The series can be described thus: Tubulin polymerization assay (ITP). Particulars: for IC50: concentration that inhibits the extent of assembly by 50% after 20 min at 30° C. Type of series: biochemical. As for the experimental part:
as §1

Series [6] has as its system xenograft ovarian OVCAR-3. Particulars: treated mice, xenograft ovarian OVCAR-3 model; cited from earlier work.
Series [7] relates to seven human tumor cell lines. The series can be described thus: Cytotoxicity against seven human tumor cell lines (panel). The settings on record: seven human tumor cell lines: epidermoid, bone, ovarian, glioblastoma, melanoma, lung, breast. Type of series: cell-based. As for the experimental part:
as §2

One may read the IC50 as the concentration that gives 50% inhibition. Low values mean higher potency, high ones lower potency. In the case of “2-Phenyl-4-quinolone-6-acetic acid [Compound 3]”, the “ED50 A549” value in the series on human lung cancer (A549) is greater than 20 mg/L. Further, in series [1], the “ED50 KB” value is greater than 20 mg/L and the “number in parentheses after the ED50 bound, KB” value was determined as 36. In addition, the “ED50 1A9” value in series [2] is greater than 20 mg/L. In addition, in series [3], the “ED50 MCF-7” value is greater than 20 mg/L. Further, in series [4], the “ED50 SKMEL-2” value was greater than 20 mg/L. Also, the “ED50 U87-MG” value in [5] is greater than 20 mg/L. Further, the “ED50 HOS” value with bone carcinoma (HOS) was greater than 20 mg/L. Moreover, the IC50 with tubulin polymerization fell in the range of 10 to 20 µM.
For the compound `O=c1cc(-c2ccccc2F)[nH]c2cc3c(cc12)OCO3` [Compound 1], in series [6], the “increase in life span” value is 130%.
As for `O=C(O)Cc1cccc2[nH]c(-c3ccccc3F)cc(=O)c12` [Compound 2], the “ED50 A549” value in the series with human lung cancer (A549) was greater than 20 mg/L. Also, the “ED50 MCF-7” value in [3] is greater than 20 mg/L. Further, the “ED50 SKMEL-2” value in series [4] is greater than 20 mg/L. Besides, in the series on tubulin polymerization, the “activity in the tubulin polymerization assay (in words)” value (“activity” below) is “totally inactive” and the IC50 was greater than 40 µM.
In the case of `O=C(O)Cc1ccc2c(=O)cc(-c3ccccc3F)[nH]c2c1` [Compound 4], in the series on human lung cancer (A549), the “ED50 A549” value was greater than 20 mg/L. Also, in [1], the “ED50 KB” value is greater than 20 mg/L and the “number in parentheses after the ED50 bound, KB” value worked out at 8. Further, in series [2], the “ED50 1A9” value is greater than 20 mg/L. Further, the “ED50 MCF-7” value in [3] is greater than 20 mg/L. In addition, the “ED50 SKMEL-2” value in series [4] was greater than 20 mg/L. Moreover, in the series on tubulin polymerization, the “activity” value was “totally inactive” and the half-inhibitory concentration (IC50) lay within 20 to 40 µM.
Broadly, the melting point is the temperature, or range, at which the solid turns liquid. `COC(=O)Cc1cccc2c(=O)cc(-c3ccccc3)[nH]c12` [Compound 9, 2-Phenyl-4-quinolone-8-methyl acetate] had a melting point of 76 to 78 °C. In series [1], the “ED50 KB” value was greater than 20 mg/L and the “number in parentheses after the ED50 bound, KB” value is recorded as 8. Also, the “ED50 1A9” value in series [2] was greater than 20 mg/L. In series [3], the “ED50 MCF-7” value was greater than 20 mg/L. Besides, the “ED50 SKMEL-2” value in series [4] was greater than 20 mg/L. Besides, in the series with bone carcinoma (HOS), the “ED50 HOS” value was greater than 20 mg/L. The compound further came in with a 50% inhibitory concentration (IC50) in the series with tubulin polymerization greater than 40 µM.
For the compound `COC(=O)Cc1cccc2c(O)cc(-c3ccccc3F)nc12` [Compound 10], in [7], the “cytotoxicity in vitro (in words)” value was “selective activity against ovarian cancers”. Moreover, the “ED50 A549” value in the series with human lung cancer (A549) is greater than 10 mg/L. Moreover, in series [1], the “ED50 KB” value is greater than 10 mg/L and the “number in parentheses after the ED50 bound, KB” value is 29. In addition, the “ED50 1A9” value in series [2] came to 7.50 mg/L (≈ 24.1 µM). In addition, the “ED50 MCF-7” value in series [3] is greater than 10 mg/L. In series [4], the “ED50 SKMEL-2” value is greater than 10 mg/L. Moreover, the “ED50 HOS” value in the series on bone carcinoma (HOS) is greater than 10 mg/L. For the same compound, in the series on tubulin polymerization (compound 10 relative to the inactive 9 and 12 (IC50>40 μM)), the “fold more active in the tubulin polymerization assay” value was “about 4 fold”. For the same compound, the IC50 in the series with tubulin polymerization was roughly 10 µM.
`O=C(O)Cc1cccc2c1N=C(c1ccccc1)CC2=O` [Compound 11, 2-Phenyl-4-quinolone-8-acetic acid]: in [7], the “cytotoxicity in vitro (in words)” value is listed as “extremely potent”. In the series on human lung cancer (A549), the “ED50 A549” value was found to be 0.11 mg/L (≈ 0.394 µM). The “ED50 KB” value in [1] was determined as 0.04 mg/L (≈ 0.143 µM). In series [2], the “ED50 1A9” value was 0.04 mg/L (≈ 0.143 µM). The “ED50 MCF-7” value in [3] was found to be 0.44 mg/L (≈ 1.58 µM). Moreover, the “ED50 SKMEL-2” value in series [4] was determined as 0.06 mg/L (≈ 0.215 µM). Moreover, the “ED50 U87-MG” value in series [5] amounted to 0.12 mg/L (≈ 0.43 µM). In addition, in the series on bone carcinoma (HOS), the “ED50 HOS” value is 0.07 mg/L (≈ 0.251 µM). Besides, in the series on tubulin polymerization, the “activity” value was “totally inactive” and the IC50 is greater than 40 µM. The “activity” value in the series with tubulin polymerization (listed as 2-Phenyl-4-quinolone-8-acetic acid) is “not inhibitors of tubulin polymerization”.
As to `O=C(O)Cc1cccc2c1N=C(c1ccccc1F)CC2=O` [Compound 12, 2-(2′-Fluorophenyl)-4-quinolone-8-acetic acid], the melting point is 243 to 245 °C. The “cytotoxicity in vitro (in words)” value in series [7] is “extremely potent”. Also, the “ED50 A549” value with human lung cancer (A549) stood at 0.06 mg/L (≈ 0.202 µM). In addition, the “ED50 KB” value in series [1] turned out to be 0.03 mg/L (≈ 0.101 µM). The “ED50 1A9” value in series [2] stood at 0.02 mg/L (≈ 0.0673 µM). The “ED50 MCF-7” value in series [3] was found to be 0.12 mg/L (≈ 0.404 µM). Besides, in series [4], the “ED50 SKMEL-2” value came to 0.05 mg/L (≈ 0.168 µM). For the same compound, the “ED50 U87-MG” value in series [5] was 0.07 mg/L (≈ 0.235 µM). Also, in the series with bone carcinoma (HOS), the “ED50 HOS” value came out at 0.04 mg/L (≈ 0.135 µM). Also, in the series on tubulin polymerization, the “activity” value is “not inhibitors of tubulin polymerization” and the IC50 was greater than 40 µM.
